Residues, ends and D or L forms follow the SMILES beside them.
How the values were obtained:
[1] = tested on: humans; conditions: sub-millimolar concentrations; cited from earlier work
[2] = tested on: T1R2 KO mice expressing a human T1R2 gene; assay: Behavioral taste responses of mice expressing a human T1R2 transgene; format: in vivo, mouse; conditions: for behavioral response to human sweet tastants: humanized T1R2 mice (T1R2 KO + hT1R2 transgene), monellin ~10 uM, thaumatin ~5 uM, aspartame 10 mM, glycyrrhizic acid 500 uM, neohesperidin dihydrochalcone 400 uM
[3] = tested on: rodents; conditions: 100 times higher concentrations than sweet to humans; cited from earlier work
[4] = tested on: T1R knockout mice; assay: Brief access taste test (lick rate relative to control) in wild-type and T1R knockout mice; format: in vivo, mouse; conditions: for behavioral responses, effect of T1R knockouts: T1R1, T1R2, T1R3 knockout versus wild-type
Text: Two complementary strategies were used to assay the taste responses of the genetically modified mice. First, we recorded tastant-induced action potentials from one of the major nerves innervating taste receptor cells of the tongue (chorda tympani). This physiological assay monitors the activity of the taste system at the periphery, and provides a measure of taste receptor cell function. Second, we examined taste behavior by measuring taste-choices in standard long-term two-bottle intake preference assays, or by direct counting of immediate licking responses in a multi-channel gustometer (Glendinning, J. I. et al., Chem Senses, 27, 461-474 (2002); Zhang, Y. et al., Cell, 112, 293-301 (2003); see Experimental Procedures). This second method relies on very short exposures to tastants (5 s events over a total of 30 min versus 48 hrs for two-bottle preference assays), and therefore has the great advantage of minimizing the impact of other sensory inputs, and post-ingestive and learning effects from the assay.
Taste behavior was assayed using a short term assay that directly measures taste preferences by counting immediate licking responses in a multi-channel gustometer (Davis MS160-Mouse gustometer; DiLog Instruments, Tallahassee, Fla.). Mice were trained and tested as described previously (Zhang, Y. et al., Cell, 112, 293-301 (2003)). Individual mice were placed in the gustometer for 30 minutes, and stimuli were presented in random order for 5 s trials that were initiated by the mouse licking the stimulus spout. […] Data points represent the mean rate that mice licked a tastant relative to their sampling of an appropriate control tastant (ratio defined as lick rate relative to control); lick suppression is defined as 1 minus the lick rate relative to control.

[5] = tested on: T1R knockout mice; assay: Chorda tympani nerve recordings in wild-type and T1R knockout mice; format: in vivo, mouse; conditions: for physiological (nerve) responses: T1R3 KO mice, salt effects minimized; for physiological responses, effect of T1R knockouts: T1R1, T1R2, T1R3 knockout versus wild-type; for neural responses (chorda tympani): wild-type, T1R1, T1R2 and T1R3 knockout mice, 100 mM citric acid, 100 mM NaCl, 10 mM PROP
[6] = biological target: T1, mouse T1R3 GPCR (Mus musculus, UniProt Q925D8); assay: Ca-imaging of HEK-293 cells expressing T1R3 and Ggust-25; format: cell-based; conditions: for T1R3 and Ggust-25 dependent responses: >300 mM, three independent stable lines
T1 construct: expressed in transfected cells
T1 sequence (Q925D8 21-858): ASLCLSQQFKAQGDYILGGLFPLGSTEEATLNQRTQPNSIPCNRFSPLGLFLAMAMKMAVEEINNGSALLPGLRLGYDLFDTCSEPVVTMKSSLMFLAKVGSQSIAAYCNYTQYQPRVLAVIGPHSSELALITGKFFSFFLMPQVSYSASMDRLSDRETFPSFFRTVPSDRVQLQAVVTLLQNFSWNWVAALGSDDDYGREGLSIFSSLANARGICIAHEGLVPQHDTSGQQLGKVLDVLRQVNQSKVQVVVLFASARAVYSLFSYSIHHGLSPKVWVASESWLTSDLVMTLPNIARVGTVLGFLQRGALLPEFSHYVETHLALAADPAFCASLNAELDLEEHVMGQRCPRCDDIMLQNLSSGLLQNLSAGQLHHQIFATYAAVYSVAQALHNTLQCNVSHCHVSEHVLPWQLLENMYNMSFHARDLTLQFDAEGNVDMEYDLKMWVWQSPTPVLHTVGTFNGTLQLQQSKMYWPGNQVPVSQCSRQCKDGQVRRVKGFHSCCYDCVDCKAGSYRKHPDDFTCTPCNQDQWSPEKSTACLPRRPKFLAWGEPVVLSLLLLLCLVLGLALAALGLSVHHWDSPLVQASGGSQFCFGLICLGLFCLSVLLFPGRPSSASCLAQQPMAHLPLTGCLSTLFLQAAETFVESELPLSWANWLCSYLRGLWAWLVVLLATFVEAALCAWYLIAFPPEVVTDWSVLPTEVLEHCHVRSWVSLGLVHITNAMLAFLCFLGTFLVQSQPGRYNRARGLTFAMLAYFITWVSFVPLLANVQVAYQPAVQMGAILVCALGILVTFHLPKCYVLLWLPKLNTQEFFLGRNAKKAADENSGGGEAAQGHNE

[7] = biological target: T2, T1R2+3 (Mus musculus, UniProt Q925D8+Q925I4); assay: Ca-imaging of HEK-293 cells co-transfected with T1R2 plus T1R3 and Ggust-25; format: cell-based; conditions: control cells expressing T1R2+3
T2 construct: expressed in transfected cells; host or cells: modified HEK-293 cells (PEAKrapid)
T2 sequence (Q925I4 20-843): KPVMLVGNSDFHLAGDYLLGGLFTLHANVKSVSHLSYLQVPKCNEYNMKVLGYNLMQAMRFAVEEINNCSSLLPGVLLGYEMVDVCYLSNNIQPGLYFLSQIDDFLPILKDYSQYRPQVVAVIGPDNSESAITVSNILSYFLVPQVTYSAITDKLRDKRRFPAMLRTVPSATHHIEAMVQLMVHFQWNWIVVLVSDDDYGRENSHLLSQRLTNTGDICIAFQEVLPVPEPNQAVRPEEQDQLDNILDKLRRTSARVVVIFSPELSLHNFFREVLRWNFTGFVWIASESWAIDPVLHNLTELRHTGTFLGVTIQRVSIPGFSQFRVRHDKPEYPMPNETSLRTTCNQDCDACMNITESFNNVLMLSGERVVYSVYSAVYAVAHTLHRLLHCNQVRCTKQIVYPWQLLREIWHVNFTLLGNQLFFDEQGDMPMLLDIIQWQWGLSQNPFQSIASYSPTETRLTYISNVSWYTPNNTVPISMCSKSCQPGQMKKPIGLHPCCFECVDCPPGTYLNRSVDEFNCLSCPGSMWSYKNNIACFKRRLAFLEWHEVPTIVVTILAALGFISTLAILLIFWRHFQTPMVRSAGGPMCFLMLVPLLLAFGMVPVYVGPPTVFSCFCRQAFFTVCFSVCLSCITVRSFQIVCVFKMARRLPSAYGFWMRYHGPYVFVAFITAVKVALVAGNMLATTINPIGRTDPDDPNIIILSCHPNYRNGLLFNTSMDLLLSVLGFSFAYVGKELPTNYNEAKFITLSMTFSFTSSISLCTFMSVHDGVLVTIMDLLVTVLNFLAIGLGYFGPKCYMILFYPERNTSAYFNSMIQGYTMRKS
T2 sequence (Q925D8 21-858): T1 sequence (Q925D8 21-858)

[8] = tested on: HEK-293 cells; assay: Ca-imaging, receptor independent rises in [Ca2+]i; format: cell-based, human; conditions: high concentrations of sugar
Protocol: Modified HEK-293 cells (PEAK^rapid cells; Edge BioSystems, Md.) were grown, transfected with […] and promiscuous G-proteins and assayed for functional responses to tastants by Ca-imaging essentially as described previously (Nelson, G. et al., Cell, 106, 381-390 (2001)). Minor differences in FURA-2 loading and Ca-imaging included using 199(H) Medium (Biosource) containing 0.1% BSA, 100 μM EGTA and 200 μM CaCl2 as assay buffer as well as reducing the time allowed for FURA-AM ester cleavage to 10 minutes. The imaging system was an Olympus IX50 microscope equipped with a 10×/0.5 N.A. fluor objective (Zeiss), the TILL imaging system (TILL Photonics GmbH), and a cooled CCD camera. Acquisition and analysis of fluorescence images used TILL-Vision software. To optimize coupling of […]-responses to changes in [Ca^2+]i, C-terminal residues of human Gα16 (Offermanns, S., and Simon, M. I., J Biol Chem, 270, 15175-15180 (1995)) were replaced with the corresponding residues from Gz (Mody, S. M. et al., Mol Pharmacol, 57, 13-23 (2000)), gustducin (McLaughlin, S. K. et al., Nature, 357, 563-569 (1992)) or Gαi2. […] Cell lines stably expressing T1R3 and Ggust-25 were established using puromycin and Zeocin (Invitrogen) selection. Three independent lines expressing T1R3 and Ggust-25 were used to examine the specificity and dose response of the T1R3 receptor.

[9] = tested on: T1R1+3; conditions: cited from earlier work; for activation of T1R1+3: psychophysically relevant concentrations
[10] = T1R3 KO mice, salt effects minimized
[11] = T1R1 and T1R3 knockout animals, L-Asp 100 mM, AP4 30 mM

COC(=O)[C@H](Cc1ccccc1)NC(=O)[C@@H](N)CC(=O)O [aspartame] (H-Asp-Phe-OMe)
sweet taste to humans [1]: taste sweet | behavioral attraction ([2]; 10 mM, three independent human T1R2 transgenic lines): displayed behavioral attraction | behavioral response to human sweet tastants [2]: ability to detect and respond | preference in rodents [3]: no preference

N[C@@H](CCC(=O)O)C(=O)O [glutamate]
behavioral attraction [4, 10]: dramatic loss of behavioral attraction | physiological (nerve) responses [5]: profound corresponding deficit in physiological responses

O=C1NS(=O)(=O)c2ccccc21 [saccharin]
[Ca2+]i response ([6]; 300 mM saccharin): No responses were detected | [Ca2+]i response ([7]; 30 mM saccharin): respond robustly

[Cl-].[Na+] [NaCl, sodium chloride]
behavioral responses, effect of T1R knockouts [4]: no significant effect | physiological responses, effect of T1R knockouts [5]: no significant effect | neural responses (chorda tympani) [5]: robust neural responses

N[C@@H](CO)C(=O)O [Ser]
behavioral attraction ([4]; T1R1 KO animals, >300 mM): small residual attraction

C[C@H](N)C(=O)O [Ala]
behavioral attraction ([4]; T1R1 KO animals, >300 mM): small residual attraction

O=C[C@H](O)[C@@H](O)[C@@H](O)[C@H](O)CO [galactose]
receptor independent rises in [Ca2+]i [8]: significant receptor independent rises in [Ca^2+]i

O=C(O)CC(O)(CC(=O)O)C(=O)O [citric acid]
behavioral responses, effect of T1R knockouts [4]: no significant effect | physiological responses, effect of T1R knockouts [5]: no significant effect | neural responses (chorda tympani) [5]: robust neural responses

NC(CCP(=O)(O)O)C(=O)O (stereo not shown) [AP4]
activation of T1R1+3 [9]: activated | taste preference relative to water [4, 11]: complete loss in preference

C[C@@H](O)[C@H](N)C(=O)O [Thr]
behavioral attraction ([4]; T1R1 KO animals, >300 mM): small residual attraction

N[C@@H](CC(=O)O)C(=O)O [L-Asp, aspartic acid]
activation of T1R1+3 [9]: activated | taste preference relative to water [4, 11]: complete loss in preference | behavioral attraction [4, 10]: dramatic loss of behavioral attraction | physiological (nerve) responses [5]: profound corresponding deficit in physiological responses

OC[C@H]1O[C@H](O[C@H]2[C@H](O)[C@@H](O)C(O)O[C@@H]2CO)[C@H](O)[C@@H](O)[C@@H]1O (mixture of isomers) [maltose]
T1R3 and Ggust-25 dependent responses [6]: dose dependent responses | taste preference relative to water ([4]; T1R2 and T1R3 knockout animals): residual responses

CC1(C)[C@@H](O[C@H]2O[C@H](C(=O)O)[C@@H](O)[C@H](O)[C@H]2O[C@@H]2O[C@H](C(=O)O)[C@@H](O)[C@H](O)[C@H]2O)CC[C@]2(C)[C@H]3C(=O)C=C4[C@@H]5C[C@@](C)(C(=O)O)CC[C@]5(C)CC[C@@]4(C)[C@]3(C)CC[C@@H]12 [glycyrrhizic acid]
behavioral response to human sweet tastants [2]: ability to detect and respond

Nc1nc2c(ncn2[C@@H]2O[C@H](COP(=O)(O)O)[C@@H](O)[C@H]2O)c(=O)[nH]1 [GMP]
enhancement of T1R1+3 activity [9]: reliably enhanced

O=C(CO)[C@@H](O)[C@H](O)[C@H](O)CO [fructose]
receptor independent rises in [Ca2+]i [8]: significant receptor independent rises in [Ca^2+]i

CCCc1cc(=O)[nH]c(=S)[nH]1 [PROP, 6-n-propyl-thiouracil]
neural responses (chorda tympani) [5]: robust neural responses

OC[C@H]1O[C@H](O[C@H]2O[C@H](CO)[C@@H](O)[C@H](O)[C@H]2O)[C@H](O)[C@@H](O)[C@@H]1O [trehalose]
receptor independent rises in [Ca2+]i [8]: significant receptor independent rises in [Ca^2+]i

N[C@@H](CCC(=O)O)C(=O)[O-].[Na+] [MSG, monosodium glutamate]
taste preference relative to water [4, 11]: complete loss in preference | integrated chorda tympani response ([5]; T1R1 and T1R3 knockouts, high concentration of salt (100 mM MSG)): residual responses are detected

OC[C@H]1O[C@@](CO)(O[C@H]2O[C@H](CO)[C@@H](O)[C@H](O)[C@H]2O)[C@@H](O)[C@@H]1O [sucrose]
increases in [Ca2+]i (FURA-2) ([6]; 500 mM sucrose): increases in [Ca^2+]i | T1R3 and Ggust-25 dependent responses [6]: dose dependent responses | taste preference relative to water ([4]; T1R2 and T1R3 knockout animals): residual responses | [Ca2+]i response ([7]; 300 mM sucrose): respond robustly

B1: monellin (protein)
chain 1: FREIKGYEYQLYVYASDKLFRADISEDYKTRGRKLLRFNGPVPPP
chain 2: GEWEIIDIGPFTQNLGKFAVDEENKIGQYGRLTFNKVIRPCMKKTIYEEN
notes: sweet protein
sweet taste to humans [1]: taste sweet | behavioral response to human sweet tastants [2]: ability to detect and respond | preference in rodents [3]: no preference

B2: thaumatin (protein)
chain: ATFEIVNRCSYTVWAAASKGDAALDAGGRQLNSGESWTINVEPGTNGGKIWARTDCYFDDSGSGICKTGDCGGLLRCKRFGRPPTTLAEFSLNQYGKDYIDISNIKGFNVPMDFSPTTRGCRGVRCAADIVGQCPAKLKAPGGGCNDACTVFQTSEYCCTTGKCGPTEYSRFFKRLCPDAFSYVLDKPTTVTCPGSSNYRVTFCPTA
notes: sweet protein
sweet taste to humans [1]: taste sweet | behavioral response to human sweet tastants [2]: ability to detect and respond | preference in rodents [3]: no preference

Source: US7459277B2, “Mammalian T1R3 sweet taste receptors” (The Regents of the University of California, priority 2003, dated 2008)
